We go through 13 compounds from patent publication US20120004244A1, “Bis Aromatic Compounds for Use as LTC4 Synthase Inhibitors” (BIOLIPOX AB, priority 2009, published 2012).

For the experiment, the target named is T1, Recombinant human LTC4 synthase (Homo sapiens, UniProt Q16873).
T1 construct: made in house; host or cells: Pichia pastoris ('Piccia pastoralis' [sic])
T1 sequence (Q16873 1-150): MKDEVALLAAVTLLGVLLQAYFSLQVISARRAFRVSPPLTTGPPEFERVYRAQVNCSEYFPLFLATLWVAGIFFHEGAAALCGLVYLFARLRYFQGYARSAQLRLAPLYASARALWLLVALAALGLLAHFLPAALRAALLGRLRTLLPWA
Briefly: LTC4 synthase in vitro assay (LTA4 to LTC4, HTRF detection). The following applies: for inhibition at 10 µM: 5 min, total concentration of title compound in the assay 10 μM. In kind it is biochemical. The procedure:
In the assay, LTC4 synthase catalyses the reaction where the substrate LTA4 is converted to LTC4. Recombinant human LTC4 synthase is expressed in Piccia pastoralis and the purified enzyme is dissolved in 25 mM tris-buffer pH 7.8 supplemented with 0.1 mM glutathione (GSH) and stored at −80° C. The assay is performed in phosphate buffered saline (PBS) pH 7.4 and 5 mM GSH in 384-well plates.
The following is added chronologically to each well:
1.48 μL LTC4 synthase in PBS with 5 mM GSH. The total protein concentration in this solution is 0.5 μg/mL. 2. 1 μL inhibitor in DMSO (final concentration 10 μM). 3. Incubation of the plate at room temperature for 10 min. 4. 1 μL LTA4 (final concentration 2.5 μM). 5. Incubation of the plate at room temperature for 5 min. 6. 10 μL of the incubation mixture is analysed using homogenous time resolved fluorescent (HTRF) detection.
A general note: Time-resolved FRET reads energy transfer from a long-lived donor to a nearby acceptor.

By IC50 is commonly meant the concentration that inhibits the measured activity by half. Consider `COc1cccc(C(=O)Nc2ccc(C(=O)c3ccc(N(C)c4ccc(Cl)cc4)cn3)cc2C(=O)O)c1` [3:10, 5-{5-[(4-Chlorophenyl)(methyl)amino]picolinoyl}-2-(3-methoxybenzamido)-benzoic acid], for which the IC50 is 24 nM.
In the case of `O=C(Nc1ccc(C(=O)c2ccc(N(CC3CC3)c3ccc(Cl)cc3)cn2)cc1C(=O)O)c1ccc2c(c1)OCO2` [3:9, 5-{5-[(4-Chlorophenyl)(cyclopropylmethyl)amino]picolinoyl}-2-(3,4-methylene-dioxybenzamido)benzoic acid], the IC50 was 21 nM.
`CN(c1ccc(Cl)cc1)c1ccc(C(=O)c2ccc(NC(=O)c3ccc4c(c3)OCO4)c(C(=O)O)c2)nc1` [3:6, 5-{5-[(4-Chlorophenyl)(methyl)amino]picolinoyl}-2-(3,4-methylenedioxy-benzamido)benzoic acid]: the IC50 is 11 nM.
Still for that read-out and setting: to `CN(c1ccc(Cl)cc1)c1ccc(C(=O)c2ccc(-n3nc(-c4ccccc4)cc3C(F)(F)F)c(C(=O)O)c2)nc1` [18:2, 5-{5-[(4-Chlorophenyl)(methyl)amino]picolinoyl}-2-(3-phenyl-5-trifluoro-methylpyrazol-1-yl)benzoic acid] belongs 104 nM; to `CN(c1ccc(Cl)cc1)c1ccc(C(=O)c2ccc(NC(=O)c3cccc4c3OCO4)c(C(=O)O)c2)nc1` [3:28, 5-{5-[(4-Chlorophenyl)(methyl)amino]picolinoyl}-2-(2,3-methylenedioxy-benzamido)benzoic acid], 50 nM.
As to `O=C(c1ccc(-n2nncc2-c2ccccn2)c(C(=O)O)c1)c1ccc(N(CC2CC2)c2ccc(Cl)cc2)cn1` [17:6, 5-{5-[(4-Chlorophenyl)(cyclopropylmethyl)amino]picolinoyl}-2-(5-(pyridin-2-yl)-1,2,3-triazol-1-yl)benzoic acid], the IC50 was found to be 107 nM.
As usually defined, the inhibition is the percentage by which the read-out fell short of the control. Consider `CN(c1ccc(Cl)cc1)c1ccc(C(=O)c2ccc(NS(=O)(=O)c3ccc(C(F)(F)F)cc3)c(C(=O)O)c2)nc1` [4:4, 5-{5-[(4-Chlorophenyl)(methyl)amino]picolinoyl}-2-(4-trifluoromethylphenylsulfon-amido)benzoic acid], for which the IC50 is 43 nM and the inhibition at 10 µM was 100%.
Take `CC1(CN(c2ccc(C(=O)c3ccc(Oc4ccccc4F)c(C(=O)O)c3)nc2)c2ccc(Cl)cc2F)COC1` [1:41, 5-{5-[(4-Chloro-2-fluorophenyl)-(3-methyloxetan-3-ylmethyl)amino]picolinoyl}-2-(2-fluorophenoxy)benzoic acid]: the IC50 was 1320 nM.
Take `CN(c1ccc(Cl)cc1)c1ccc(C(=O)c2ccc(NC(=O)c3cc(Cl)ccc3O)c(C(=O)O)c2)nc1` [3:2, 2-(5-Chloro-2-hydroxybenzamido)-5-{5-[(4-chlorophenyl)(methyl)amino]-picolinoyl}benzoic acid]: the IC50 is 25 nM and the inhibition at 10 µM is 100%.
With `CN(c1ccc(Cl)cc1)c1ccc(C(=O)c2ccc(Oc3ccccc3)c(C(=O)O)c2)nc1` [1:1, 5-{5-[(4-Chlorophenyl)(methyl)amino]picolinoyl}-2-phenoxybenzoic acid], the IC50 worked out at 110 nM and the inhibition at 10 µM was found to be 98%.
As to `O=C(c1ccc(Oc2ccccc2)c(C(=O)O)c1)c1ccc(OCc2cccc(C(F)(F)F)c2)cn1` [11:5, 2-Phenoxy-5-[5-(3-trifluoromethylbenzyloxy)picolinoyl]benzoic acid], the IC50 was 181 nM.
`CN(c1ccc(Cl)cc1)c1ccc(C(=O)c2ccc(Nc3ccc(C(O)(C(F)(F)F)C(F)(F)F)cc3)c(C(=O)O)c2)nc1` [2:17, 5-{5-[(4-Chlorophenyl)(methyl)amino]picolinoyl}-2-[4-(1,1,1,3,3,3-hexafluoro-2-hydroxy-2-propyl)phenylamino]benzoic acid]: the IC50 came to 138 nM.
Consider `CN(c1ccc(Cl)cc1)c1ccc(C(=O)c2ccc(NCc3ccc(Cl)cc3Cl)c(C(=O)O)c2)nc1` [2:11, 5-{5-[(4-Chlorophenyl)(methyl)amino]picolinoyl}-2-(2,4-dichlorobenzylamino)benzoic acid], for which the IC50 was found to be 88 nM.
